Measurements as given in US7001735B2, “Glucose transporter/sensor protein and uses thereof” (Albert Einstein College of Medicine of Yeshiva University, priority 2000, dated 2006).

Key:
[1] = system: GLUTx; test: Immunocytochemical localisation of GLUTx in insulin-stimulated MTLn3 cells; format: cell-based, rat; conditions: insulin 500 nM, 1 h, basal state perinuclear Golgi region, data not shown
Procedure: (§1) Immunohistochemistry was performed according to protocols provided by the Dako LSAB (labeled streptoavidin biotin reagents) and Dako EnVision+System (peroxidase, DAB) kits. However, some modifications were made. In brief, tissue on a slide was deparaffinized in xylene, and rehydrated in water. For cells that were processed, the slides or coverslips containing the cells were fixed in 4% paraformaldehyde for 1 h, then washed 4 times in buffered solution (TBS). The slides were placed in 3% H2O2 for 15 min in a 37° C. water bath to quench endogenous peroxidase activity. Epitope retrieval in paraffin-embedded tissue was achieved by heating the slides to 95° C. in a pre-heated citric acid solution (0.01 M citric acid, 0.01 M sodium citrate; pH 6.0). This temperature was maintained for 15 min in a microwave on high power or in a steam bath. The slides then were cooled. At this point, processing was started for the slides containing fixed cells.
(§2) Next, the primary antibody to GLUTx was applied to the slides for 30 min at room temperature (RT). Slides were rinsed in TBS 3 times for 5 min. The slides then were incubated with secondary antibody, as provided in the kit, for 15–20 min at RT. The slides were rinsed well with PBS, and the tertiary reagent (Strep-Avidin or HRP-labeled EnVision polymer) was applied for 15–20 min at RT. […]

[2] = system: GLUTx; test: Immunocytochemical localisation of GLUTx in insulin-stimulated MTC cells; format: cell-based, rat; conditions: insulin 500 nM, 1 h, basal state mainly perinuclear Golgi region, data not shown
Procedure: as §1, §2

## insulin: hormone used to stimulate the cells (500 nM for 1 h)
[1]
  distribution of GLUTx (light microscopy): also associated with the cell membrane
[2]
  distribution of GLUTx (light microscopy): localized also on the cell membrane
